These results are taken from ChEMBL document CHEMBL1201862, “PubChem BioAssay data set” (2004).

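Growth conditions: 96-well plates. Treatment: test compound, 48 hours, 5 concentrations. Analysis: linear interpolation between bracketing concentrations; unreached endpoints set to highest concentration. GI50 marks 50% less growth.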 The source made the active and inactive calls. Cut-off read from the data, not from the text of the source: active = GI50 up to about 1.1 µM and inactive = higher.

Among the test systems are UO-31; Malme-3M; SNB-75; HT-29; U-251; UACC-257; SNB-19; MOLT-4; SR; HCT-116; MDA-MB-435; NCI-H522; NCI/ADR-RES; SF-295; NCI-H226; CCRF-CEM; SF-268; MDA-MB-231; A498; M14.
What all share (test): NCI tumour cell line growth inhibition, 48 h

As to `COc1ccc2c(c1)c1c3c(ccc4ncn2c43)N(CCO)CCN=1`, the GI50 was 0.104 µM (active) in the assay with UO-31; 0.187 µM (active) with Malme-3M; 0.306 µM (active) in the assay on SNB-75; 0.136 µM (active) with HT-29; 0.254 µM (active) in the assay with U-251; 0.391 µM (active) with UACC-257. The GI50 with SNB-19 is 0.234 µM (active); with MOLT-4, 0.026 µM (active); with SR, 0.0198 µM (active); with HCT-116, 0.0512 µM (active); with MDA-MB-435, 0.234 µM (active); in the assay with NCI-H522 it was 0.106 µM (active). Besides, the GI50 with NCI/ADR-RES is 0.334 µM (active); in the assay on SF-295 it was 0.19 µM (active); in the assay on NCI-H226, 0.182 µM (active); in the assay on CCRF-CEM it was 0.0476 µM (active); with SF-268, 0.221 µM (active); in the assay on MDA-MB-231 it was 0.183 µM (active). Also, the GI50 in the assay on A498 is 0.215 µM (active); in the assay with M14, 0.271 µM (active).

Take `COc1ccc2c(c1)Cc1cc(/N=[N+](\[O-])c3ccc4c(c3)Cc3cc(OC)ccc3-4)ccc1-2`: the GI50 in the assay on UO-31 was 24.9 µM (inactive); in the assay with Malme-3M, 38.9 µM (inactive); with SNB-75 it was 39.2 µM (inactive); in the assay on HT-29, 15.6 µM (inactive); in the assay with U-251 it was 16.9 µM (inactive); with UACC-257 it was 12.9 µM (inactive). The GI50 in the assay with SNB-19 was 51.8 µM (inactive); in the assay with MOLT-4 it was 36.6 µM (inactive); with SR, 16.4 µM (inactive); in the assay with HCT-116, 60.7 µM (inactive); with MDA-MB-435 it was 27.1 µM (inactive); in the assay on NCI-H522, 4.78 µM (inactive). Besides, the GI50 with NCI/ADR-RES was 89.1 µM (inactive); in the assay with SF-295 it was 67.3 µM (inactive); in the assay on NCI-H226, 70.3 µM (inactive); in the assay on CCRF-CEM, 12 µM (inactive); with SF-268, 82.8 µM (inactive); in the assay on MDA-MB-231, 43 µM (inactive). For the same compound, the GI50 is 35.6 µM (inactive) in the assay with A498 and 49.4 µM (inactive) in the assay with M14.

With `C=C(CC[C@@H](C)[C@H]1CC[C@H]2[C@@H]3C[C@@H](O)[C@H]4C[C@@H](O)CC[C@]4(CO)[C@H]3CC[C@]12C)C(C)C`, the GI50 with UO-31 is 3.42 µM (inactive); with Malme-3M, 6.49 µM (inactive); in the assay with SNB-75, 8.32 µM (inactive); with HT-29, 1.98 µM (inactive); with U-251, 6.44 µM (inactive); with UACC-257, 7.46 µM (inactive). Further, the GI50 in the assay with SNB-19 was 7.98 µM (inactive); in the assay on MOLT-4, 3.3 µM (inactive); in the assay on SR it was 2.71 µM (inactive); in the assay with HCT-116, 2.9 µM (inactive); in the assay with MDA-MB-435 it was 7.45 µM (inactive); with NCI-H522, 5.24 µM (inactive). The GI50 was 4.49 µM (inactive) in the assay with NCI/ADR-RES; 9.12 µM (inactive) with SF-295; 9.29 µM (inactive) in the assay with NCI-H226; 3.56 µM (inactive) with CCRF-CEM; 6.35 µM (inactive) with SF-268; 4.17 µM (inactive) in the assay with MDA-MB-231. In addition, the values for the GI50 with A498 and with M14 were 6.62 µM (inactive) and 6.97 µM (inactive), respectively.

Take `Clc1nc(Cl)c(-c2ccccc2)c(Cl)n1`: the GI50 was 4.61 µM (inactive) in the assay with UO-31; 2.02 µM (inactive) in the assay on Malme-3M; 0.64 µM (active) in the assay with SNB-75; 7.66 µM (inactive) with HT-29; 5.32 µM (inactive) in the assay with U-251; 2.82 µM (inactive) in the assay on UACC-257. In addition, the GI50 is 14.5 µM (inactive) in the assay with SNB-19; 2.96 µM (inactive) with MOLT-4; 2.48 µM (inactive) in the assay on SR; 1.84 µM (inactive) with HCT-116; 3.24 µM (inactive) with MDA-MB-435; 1.55 µM (inactive) with NCI-H522. For the same compound, the GI50 in the assay with NCI/ADR-RES was 3.42 µM (inactive); in the assay with SF-295, 12.7 µM (inactive); in the assay on NCI-H226 it was 2.3 µM (inactive); in the assay with CCRF-CEM it was 2.27 µM (inactive); in the assay on SF-268 it was 3.19 µM (inactive); with MDA-MB-231 it was 3.24 µM (inactive). The GI50 in the assay on A498 is 16.2 µM (inactive); in the assay with M14, 1.62 µM (inactive).

Regarding `CCc1c2c([nH]c(=S)c1C#N)CCC2`, the GI50 in the assay with UO-31, with Malme-3M, with SNB-75, with HT-29, with U-251 and in the assay with UACC-257 was > 100 µM (inactive) in each case. The GI50 with SNB-19 is > 100 µM (inactive); in the assay on MOLT-4, > 100 µM (inactive); with SR, 74.5 µM (inactive); with HCT-116, > 100 µM (inactive); with MDA-MB-435, > 100 µM (inactive); in the assay on NCI-H522 it was > 100 µM (inactive). Moreover, the GI50 in the assay with NCI/ADR-RES was > 100 µM (inactive); in the assay with SF-295, > 100 µM (inactive); with NCI-H226, > 100 µM (inactive); with CCRF-CEM it was 48.8 µM (inactive); in the assay on SF-268, > 100 µM (inactive); with MDA-MB-231, > 100 µM (inactive). Also, the GI50 in the assay with A498 and with M14 was > 100 µM (inactive) in each case.

Consider `CN(C)/C=N/S(=O)(=O)c1nn2c(C=O)c(-c3ccccc3)nc2s1`, for which the GI50 with UO-31 is 5.36 µM (inactive); in the assay on Malme-3M it was 12.9 µM (inactive); in the assay on SNB-75, 59.7 µM (inactive); with HT-29 it was 1.94 µM (inactive); with U-251, 15.9 µM (inactive); in the assay with UACC-257, 24.2 µM (inactive). Moreover, the GI50 is 36 µM (inactive) with SNB-19; 3.21 µM (inactive) with MOLT-4; 5.74 µM (inactive) with SR; 3.26 µM (inactive) in the assay with HCT-116; 12.4 µM (inactive) in the assay on MDA-MB-435; 3.37 µM (inactive) in the assay with NCI-H522. Also, the GI50 was 23.2 µM (inactive) in the assay with NCI/ADR-RES; 52.8 µM (inactive) in the assay with SF-295; 21.4 µM (inactive) in the assay with NCI-H226; 2.96 µM (inactive) with CCRF-CEM; 29.5 µM (inactive) in the assay with SF-268; 6.81 µM (inactive) with MDA-MB-231. Besides, the GI50 is 67.6 µM (inactive) in the assay with A498 and 2.51 µM (inactive) in the assay with M14.

For `CC(C)/C(Cl)=N/OC(=O)Nc1cccc(C(F)(F)F)c1`, the GI50 in the assay with UO-31 is 7.96 µM (inactive); with Malme-3M, 1.6 µM (inactive); in the assay with SNB-75 it was 5.04 µM (inactive); in the assay on HT-29 it was 4.98 µM (inactive); in the assay with U-251, 17 µM (inactive); with UACC-257, 15.4 µM (inactive). Also, the GI50 in the assay on SNB-19 is 19 µM (inactive); in the assay on MOLT-4 it was 1.67 µM (inactive); with SR it was 1.06 µM (active); in the assay with HCT-116, 8.2 µM (inactive); in the assay with MDA-MB-435, 11.8 µM (inactive); in the assay on NCI-H522, 0.14 µM (active). Further, the GI50 in the assay on NCI/ADR-RES was 5.5 µM (inactive); with SF-295, 18.3 µM (inactive); in the assay on NCI-H226, 12.5 µM (inactive); in the assay on CCRF-CEM it was 0.532 µM (active); in the assay with SF-268, 23.1 µM (inactive); with MDA-MB-231 it was 6.68 µM (inactive). In addition, the GI50 in the assay on A498 was 18.7 µM (inactive); in the assay with M14, 3.52 µM (inactive).

For the compound `CC(C)(C)c1cc(Br)c(O)c(CN(Cc2cc(C(C)(C)C)cc(Br)c2O)C2CCCCC2)c1`, the GI50 was 14.4 µM (inactive) in the assay with UO-31; 11.8 µM (inactive) in the assay with Malme-3M; 8.55 µM (inactive) with SNB-75; 6.89 µM (inactive) in the assay on HT-29; 13.9 µM (inactive) in the assay with U-251; 4.14 µM (inactive) in the assay with UACC-257. Besides, the GI50 in the assay with SNB-19 was 14.1 µM (inactive); in the assay on MOLT-4, 10.4 µM (inactive); in the assay with SR, 10.1 µM (inactive); in the assay with HCT-116 it was 12.5 µM (inactive); in the assay with MDA-MB-435, 14.3 µM (inactive); with NCI-H522 it was 12.6 µM (inactive). Besides, the GI50 is 12 µM (inactive) with NCI/ADR-RES; 12.7 µM (inactive) with SF-295; 15.6 µM (inactive) in the assay with NCI-H226; 13.3 µM (inactive) with CCRF-CEM; 13.5 µM (inactive) in the assay on SF-268; 15 µM (inactive) with MDA-MB-231. The GI50 in the assay on A498 was 13.5 µM (inactive); in the assay with M14, 12.9 µM (inactive).

`Cc1ncc([N+](=O)[O-])n1CCNC(=O)Cn1c([N+](=O)[O-])cnc1C`: the GI50 in the assay with UO-31 is > 100 µM (inactive); in the assay with Malme-3M it was > 100 µM (inactive); with SNB-75, 76.2 µM (inactive); in the assay with HT-29, > 100 µM (inactive); with U-251 it was > 100 µM (inactive); in the assay on UACC-257, > 100 µM (inactive). Moreover, the GI50 in the assay with SNB-19, in the assay on MOLT-4, in the assay on SR, in the assay with HCT-116, with MDA-MB-435 and in the assay on NCI-H522 was > 100 µM (inactive) each time. Moreover, the GI50 with NCI/ADR-RES, in the assay with SF-295, with NCI-H226, with CCRF-CEM, in the assay with SF-268 and with MDA-MB-231 was > 100 µM (inactive) in each case. Besides, the GI50 in the assay on A498 and in the assay on M14 was > 100 µM (inactive) in each case.

`CCN1CN(c2ccccc2)C2(CCN(CC3COc4ccccc4O3)CC2)C1=O` (stereo not given): the GI50 with UO-31 was 29 µM (inactive); in the assay on Malme-3M, 16.9 µM (inactive); with SNB-75, 30.2 µM (inactive); with HT-29, 20.1 µM (inactive); in the assay with U-251 it was 30.6 µM (inactive); with UACC-257, 35.3 µM (inactive). For the same compound, the GI50 was 36.2 µM (inactive) in the assay with SNB-19; 14.5 µM (inactive) with MOLT-4; 5.13 µM (inactive) with SR; 17.6 µM (inactive) with HCT-116; 23.3 µM (inactive) with MDA-MB-435; 18 µM (inactive) in the assay with NCI-H522. The GI50 was 37.2 µM (inactive) in the assay on NCI/ADR-RES; 39.9 µM (inactive) with SF-295; 24 µM (inactive) in the assay on NCI-H226; 18.4 µM (inactive) in the assay with CCRF-CEM; 42.5 µM (inactive) in the assay with SF-268; 2.57 µM (inactive) in the assay on MDA-MB-231. In addition, the GI50 in the assay on A498 was 22.6 µM (inactive); in the assay on M14, 2.21 µM (inactive).
